The values that follow come from patent publication US9096615B2, “Bridged bicyclic amino thiazine dioxide compounds as inhibitors of beta-secretase and methods of use thereof” (AMGEN INC., priority 2013, dated 2015).

For one assay, the target named is BACE1 (Homo sapiens, UniProt P56817). In words: In vitro enzymatic BACE FRET assay. The assay is classed as biochemical. An outline of the steps: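 BACE (0.2 nM) pre-incubated 1 h with serially diluted inhibitor in 0.05 M acetate pH 4.2, 10% DMSO, 100 uM genapol; 50 nM FRET peptide substrate added, 1 h incubation. Stopped with Tris to neutral pH; fluorescence read (ex 488, […]).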
Chain of BACE1 (P56817 46-501, species assumed): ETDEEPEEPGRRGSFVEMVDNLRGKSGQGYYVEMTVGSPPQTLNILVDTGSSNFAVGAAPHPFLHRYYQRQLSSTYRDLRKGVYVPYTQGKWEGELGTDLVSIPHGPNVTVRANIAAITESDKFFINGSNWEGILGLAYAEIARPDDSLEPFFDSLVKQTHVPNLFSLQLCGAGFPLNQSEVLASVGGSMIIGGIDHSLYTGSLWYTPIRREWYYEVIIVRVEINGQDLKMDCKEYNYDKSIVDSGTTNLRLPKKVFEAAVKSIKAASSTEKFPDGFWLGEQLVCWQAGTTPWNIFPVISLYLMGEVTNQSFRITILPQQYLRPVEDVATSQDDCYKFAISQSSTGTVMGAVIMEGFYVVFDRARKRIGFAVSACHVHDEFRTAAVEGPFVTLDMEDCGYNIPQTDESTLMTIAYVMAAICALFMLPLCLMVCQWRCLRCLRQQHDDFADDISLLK

The test system of assay [1] is Aβ40 in conditioned medium of cells stably expressing Amyloid Precursor Protein (APP). In words: In vitro BACE cell-based assay (HEK cell assay, Aβ40 sandwich ELISA). To be noted: Homo sapiens, HEK293. An outline of the steps: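 APP-stable cells were cultured 24 h at 37 °C, then given compound as 10-point dose-response (top 100 μM or 10 μM; 0.1% DMSO final) for 24 h. Aβ40 in conditioned medium was measured by sandwich ELISA (pAb40 capture, biotinylated 6E10 detection, Eu time-resolved fluorescence). IC50 from percent inhibition versus concentration.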
Background: In an ELISA, binding on a coated surface is turned into a signal by an enzyme label.

The target of another assay is T1, Cathepsin D (Cat D) (Homo sapiens, UniProt P07339).
T1 construct: made in house; host or cells: CHO cells
T1 sequence (P07339 65-412, species assumed): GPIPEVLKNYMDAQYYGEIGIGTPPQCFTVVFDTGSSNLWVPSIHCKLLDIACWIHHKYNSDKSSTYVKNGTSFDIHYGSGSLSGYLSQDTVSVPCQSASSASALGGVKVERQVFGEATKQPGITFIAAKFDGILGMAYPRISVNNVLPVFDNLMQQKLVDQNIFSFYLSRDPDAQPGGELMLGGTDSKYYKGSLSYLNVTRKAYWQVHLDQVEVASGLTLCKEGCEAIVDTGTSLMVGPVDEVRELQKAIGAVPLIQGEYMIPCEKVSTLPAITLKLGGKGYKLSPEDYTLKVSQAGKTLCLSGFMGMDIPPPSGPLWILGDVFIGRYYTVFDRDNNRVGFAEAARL
In words: In vitro enzymatic Cathepsin D (Cat D) FRET assay. In kind it is biochemical. To be noted: read-out: CatD IC50. A digest of the protocol:
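Recombinant human Cat D expressed in CHO cells, 9 nM, pre-incubated 1 h with inhibitor in 0.05 M citrate pH 3.5, 10% DMSO, 5 mM CHAPS. Reaction started with 20 nM FRET peptide substrate, run 1 h, stopped with Tris to neutral pH; fluorescence read at ex 500/em 580 nm.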

The mark [2] stands for this setting: average IC50, read-out: BACE1 Enzyme assay IC50.
Where [3] appears, read: average IC50, read-out: BACE1 cell assay IC50.
The mark [4] stands for this setting: read-out: BACE1 FRET assay IC50.
Setting [5] is: Aβ40, 24 h incubation, read-out: HEK cell assay IC50.

Molecules are shown by their SMILES. Like-named read-outs stand apart in the source and are kept apart here.

One may read the IC50 as the concentration needed to halve the response being measured.

Consider `Cc1cc(C(F)(F)F)cnc1C(=O)Nc1ccc(F)c([C@@]2(C)N=C(N)[C@@]3(C)CC[C@]2(C)S3(=O)=O)c1` [Example 48, N-(3-((1S,2R,5R)-4-amino-1,2,5-trimethyl-8,8-dioxido-8-thia-3-azabicyclo[3.2.1]oct-3-en-2-yl)-4-fluorophenyl)-3-methyl-5-(trifluoromethyl)-2-pyridinecarboxamide], for which the IC50 at BACE1 (setting [2]) came to 0.011 µM; in assay [1] (setting [3]), 0.004 µM; at Cathepsin D (Cat D) (average IC50, first procedure), 54.1 µM.

In the case of `Cc1cc(Cl)cnc1C(=O)Nc1ccc(F)c([C@@]2(C)N=C(N)[C@@]3(C)CCC[C@]2(C)S3(=O)=O)c1` [Example 11, N-(3-((1S,2R,5R)-4-Amino-1,2,5-trimethyl-9,9-dioxido-9-thia-3-azabicyclo[3.3.1]non-3-en-2-yl)-4-fluorophenyl)-5-chloro-3-methylpicolinamide], the figures for the IC50 (on BACE1 (setting [4]); in assay [1] (setting [5]); at Cathepsin D (Cat D)) were 0.006 µM, 0.031 µM and 51.5 µM, respectively.

Consider `COc1cnc2c(Nc3ccc(F)c([C@@]4(C)N=C(N)[C@@H]5CCC[C@H]4S5(=O)=O)c3)nccc2n1` (stereo in doubt) [Example 19], for which the IC50 was found to be 0.323 µM on BACE1 (setting [4]), 0.179 µM in assay [1] (setting [5]) and 1210 µM at Cathepsin D (Cat D).

Consider `C[C@]1(c2cc(Nc3ncc(F)c4cc(O)cnc34)ccc2F)N=C(N)[C@@]2(C)CC[C@@H]1S2(=O)=O` [Example 39, (1R,4R,5S)-2-amino-4-(2-fluoro-5-((5-fluoro-3-hydroxy-1,7-naphthyridin-8-yl)amino)phenyl)-1,4-dimethyl-8-thia-3-azabicyclo[3.2.1]oct-2-ene 8,8-dioxide], for which the concentration for half-maximal inhibition (IC50) was determined as 0.001 µM at BACE1 (setting [2]); 0.009 µM in assay [1] (setting [3]); 191 µM on Cathepsin D (Cat D) (average IC50, first procedure).

On to `C[C@]12CC[C@H]([C@@](C)(c3cc(NC(=O)c4ccc(C#N)cc4F)ccc3F)N=C1N)S2(=O)=O` [Example 128, N-(3-((1R,2R,5S)-4-amino-2,5-dimethyl-8,8-dioxido-8-thia-3-azabicyclo[3.2.1]oct-3-en-2-yl)-4-fluorophenyl)-4-cyano-2-fluorobenzamide], for which the IC50 on BACE1 (setting [2]) was 0.123 µM; in assay [1] (setting [3]), 0.037 µM; at Cathepsin D (Cat D) (average IC50, first procedure), over 400 µM.

In the case of `C[C@]1(c2cc(NC(=O)c3ccc(C#N)cn3)ccc2F)N=C(N)[C@@]2(CF)CC[C@@H]1S2(=O)=O` [Example 111, N-(3-((1S,2R,5R)-4-amino-5-(fluoromethyl)-2-methyl-8,8-dioxido-8-thia-3-azabicyclo[3.2.1]oct-3-en-2-yl)-4-fluorophenyl)-5-cyano-2-pyridinecarboxamide], the IC50 at BACE1 (setting [2]) is 0.002 µM; in assay [1] (setting [3]), 0.004 µM; on Cathepsin D (Cat D) (average IC50, first procedure), 957 µM.

Take `COc1cnc2c(Nc3ccc(F)c([C@@]4(C)N=C(N)[C@]5(C)CC[C@H]4S5(=O)=O)c3)ncnc2c1` [Example 133, N-(3-((1R,2R,5S)-4-amino-2,5-dimethyl-8,8-dioxido-8-thia-3-azabicyclo[3.2.1]oct-3-en-2-yl)-4-fluorophenyl)-7-methoxypyrido[3,2-d]pyrimidin-4-amine]: the IC50 turned out to be 0.096 µM at BACE1 (setting [2]); 0.026 µM in assay [1] (setting [3]); 1160 µM on Cathepsin D (Cat D) (average IC50, first procedure).

With `Cc1cc(Cl)cnc1C(=O)Nc1ccc(F)c([C@@]2(C)N=C(N)[C@]3(C)CC[C@H]2S3(=O)=O)c1` [Example 26, N-(3-((1R,2R,5S)-4-Amino-2,5-dimethyl-8,8-dioxido-8-thia-3-azabicyclo[3.2.1]oct-3-en-2-yl)-4-fluorophenyl)-5-chloro-3-methylpicolinamide], the half-inhibitory concentration (IC50) was 0.008 µM on BACE1 (setting [4]), 0.017 µM in assay [1] (setting [5]) and 577 µM on Cathepsin D (Cat D).

On to `CC#CCOc1ccc(C(=O)Nc2ccc(F)c([C@@]3(C)N=C(N)[C@@]4(C)CC[C@@H]3S4(=O)=O)c2)c(F)c1` [Example 138, N-(3-((1S,2R,5R)-4-amino-2,5-dimethyl-8,8-dioxido-8-thia-3-azabicyclo[3.2.1]oct-3-en-2-yl)-4-fluorophenyl)-4-(2-butyn-1-yloxy)-2-fluorobenzamide], for which the IC50 on BACE1 (setting [2]) is 0.061 µM; in assay [1] (setting [3]), 0.122 µM; at Cathepsin D (Cat D) (average IC50, first procedure), over 400 µM.

Turning to `C[C@]1(c2cc(NC(=O)c3ccc(C#CC4CC4)cn3)ccc2F)N=C(N)[C@@]2(C)CC[C@@H]1S2(=O)=O` [Example 64, N-(3-((1S,2R,5R)-4-amino-2,5-dimethyl-8,8-dioxido-8-thia-3-azabicyclo[3.2.1]oct-3-en-2-yl)-4-fluorophenyl)-5-(cyclopropylethynyl)-2-pyridinecarboxamide], the IC50 on BACE1 (setting [2]) was determined as 0.001 µM; in assay [1] (setting [3]), 0.005 µM; on Cathepsin D (Cat D) (average IC50, first procedure), 470 µM.

As to `C[C@]12CC[C@H]([C@@](C)(c3cc(NC(=O)c4c(F)cc(Br)cc4F)ccc3F)N=C1N)S2(=O)=O` [Example 126, N-(3-((1R,2R,5S)-4-amino-2,5-dimethyl-8,8-dioxido-8-thia-3-azabicyclo[3.2.1]oct-3-en-2-yl)-4-fluorophenyl)-4-bromo-2,6-difluorobenzamide], the half-maximal inhibitory concentration (IC50) stood at 0.315 µM on BACE1 (setting [2]); 0.073 µM in assay [1] (setting [3]); 2200 µM at Cathepsin D (Cat D) (average IC50, first procedure).

Consider `CC#CCOc1cnc2c(Nc3ccc(F)c([C@@]4(C)N=C(N)[C@@]5(C)CC[C@@H]4S5(=O)=O)c3)ncc(F)c2c1` [Example 134, N-(3-((1S,2R,5R)-4-amino-2,5-dimethyl-8,8-dioxido-8-thia-3-azabicyclo[3.2.1]oct-3-en-2-yl)-4-fluorophenyl)-3-(2-butyn-1-yloxy)-5-fluoro-1,7-naphthyridin-8-amine], for which the IC50 on BACE1 (setting [2]) stood at 0.001 µM; in assay [1] (setting [3]), 0.004 µM; at Cathepsin D (Cat D) (average IC50, first procedure), 1610 µM.

In the case of `CC#CCOc1cnc(C(=O)Nc2ccc(F)c([C@@]3(C)N=C(N)[C@]4(CF)CC[C@H]3S4(=O)=O)c2)cn1` [Example 95, N-(3-((1R,2R,5S)-4-amino-5-(fluoromethyl)-2-methyl-8,8-dioxido-8-thia-3-azabicyclo[3.2.1]oct-3-en-2-yl)-4-fluorophenyl)-5-(2-butyn-1-yloxy)-2-pyrazinecarboxamide], the concentration for half-maximal inhibition (IC50) on BACE1 (setting [2]) was 0.007 µM; in assay [1] (setting [3]) it was 0.003 µM; on Cathepsin D (Cat D) (average IC50, first procedure), 603 µM.

With `Cc1cc(OC(F)F)cnc1C(=O)Nc1ccc(F)c([C@@]2(C)N=C(N)[C@]3(C)CCC[C@@]2(F)S3(=O)=O)c1` [Example 10, N-(3-((1R,2R,5S)-4-Amino-1-fluoro-2,5-dimethyl-9,9-dioxido-9-thia-3-azabicyclo[3.3.1]non-3-en-2-yl)-4-fluorophenyl)-5-(difluoromethoxy)-3-methylpicolinamide], the half-inhibitory concentration (IC50) was 0.009 µM at BACE1 (setting [4]), 0.035 µM in assay [1] (setting [5]) and 8.75 µM at Cathepsin D (Cat D).

On to `Cc1cc(Cl)cnc1C(=O)Nc1ccc(F)c([C@@]2(C)N=C(N)[C@]3(C)CCC[C@H]2S3(=O)=O)c1` [Example 4, N-(3-((1R,2R,5S)-4-Amino-2,5-dimethyl-9,9-dioxido-9-thia-3-azabicyclo[3.3.1]non-3-en-2-yl)-4-fluorophenyl)-5-chloro-3-methylpicolinamide], for which the IC50 at BACE1 (setting [4]) amounted to 0.007 µM; in assay [1] (setting [5]) it was 0.02 µM; at Cathepsin D (Cat D), 270 µM.

On to `C[C@]12CC[C@](C)(C(N)=N[C@]1(C)c1cc(Nc3ncc(F)c4cc(Cl)cnc34)ccc1F)S2(=O)=O` [Example 50, N-(3-((1S,2R,5R)-4-amino-1,2,5-trimethyl-8,8-dioxido-8-thia-3-azabicyclo[3.2.1]oct-3-en-2-yl)-4-fluorophenyl)-3-chloro-5-fluoro-1,7-naphthyridin-8-amine], for which the concentration for half-maximal inhibition (IC50) on BACE1 (setting [2]) stood at 0.004 µM; in assay [1] (setting [3]), 0.28 µM; at Cathepsin D (Cat D) (average IC50, first procedure), 12 µM.
